Key:
[1] = system: Reconstructed Human Epidermis (RHE); test: LDH quantification (membrane integrity / viability) in cold-stress epidermal dryness model; format: cell-based
From the text: (§1) An experimental model of epidermal dryness, induced by modified room humidity and temperature conditions, has been used to assess the efficacy of 3 cosmetic products characterized by the following compositions SOLUTION 1 Water + trehalose 1% SOLUTION 2 Water + ectoine 0,5% SOLUTION 3 Water + ectoine 0,5% + trehalose 1%.
(§2) SkinEthic® Reconstructed Human Epidermis (RHE) of 0,5 cm^2 is a fully differentiated epidermis formed after 17 day of air-lift culture of NHK from skin biopsies in a chemically defined medium. The model reproduces epidermal morphology and it has been fully characterized. The good barrier function, batch reproducibility and low variability in terms of permeability for probe molecules have been described in the Literature compared to human ex-vivo models.
Immediately after arrival in the laboratory, the RHE were transferred to a 6-well plate previously filled with maintenance medium (1 mL/well) at room temperature and incubated at 37°C, 5% CO2, saturated humidity. The test has been started the day after the arrival.
The cell membrane forms a functional barrier around the cell, and traffic into and out of the cell is highly regulated by transporters, receptors and secretion pathways. When cells are damaged, they become 'leaky' and this forms the basis for the second type of assay. Membrane integrity is determined by measuring lactate dehydrogenase (LDH) in the extracellular medium. This enzyme is normally present in the cytosol, and cannot be measured extracellularly unless cell damage has occurred. […] The culture supernatant is collected and incubated with the reaction mixture including the kit (20 min, room T°, in the dark). An increase in the amount of dead or plasma membrane-damaged cells results in an increase of the LDH enzyme activity in the culture media. This increase in the amount of enzyme activity in the supernatant directly correlates to the amount of formazan formed during a defined time period therefore, the amount of color formed in the assay is proportional to the number of lysed cells.
The higher optical density has been quantified in the media of stressed RHE and used as 100 % higher citotoxicity value.

[2] = system: AQP3; test: Real time PCR, AQP3 gene expression in RHE; format: cell-based, Human; details: for AQP3 (RQ): cold stressed RHE
From the text: as §1, §2
(§3) For the three steps, ready to use reagents were used. The RNAqueous method is a rapid, phenol free, filter based RNA isolation system used to extract the total RNA from cellular samples. The High Capacity cDNA Reverse Transcription kit was used to synthetize cDNA from RNA. The instrument Applied Biosystems 7500 Fast Real Time PCR with fluorescent-based PCR chemistry, the TaqMan assay, was used to study gene expression of significant biomarkers. Gene expression is the process by which the inheritable information in a gene, such as the DNA sequence, is made into a functional gene product, such as protein or RNA. Relative quantification determines the change in the expression of a nucleic acid sequence in a test sample relative to the same sequence in a calibrator sample. Beta-actin was used as an endogenous control gene to normalize input amounts.
(§4) Each replicate was assessed in triplicate. At the 2X TaqMan Fast Universal PCR Master Mix was added Taqman gene expression assay and cDNA (25 ng) for a total volume of 25 µL. The Thermal condition steps in the ABI PRISM 7500 Fast are: 95°C 20 sec; 40 cycles (95°C 3 sec +60°C 30 sec).
(§5) Fluorescence data of the RT-PCR generated by the thermocycler ABI PRISM 7500 Fast, are collected by the internal software SDS 2.0.5 and the Raw Data (RQ study results) are printed and exported in Excel.
(§6) Because each cycle in the PCR reaction corresponds to a 2-fold increase in PCR product, a difference of one in threshold cycle number represents a 2-fold difference in the expression of a particular gene compared to the calibrator sample and can be considered as significant. 95% of confidence level is used by the software to calculate the errors.
(§7) The cold stress performed by 30' induction at -20°C corresponds to a block of water flux: the treatment has been done at this moment and followed by 16h and 48h recovery allowing to monitor the dynamic of the genomic response and to study product mechanism of action: the fig.3 described RHE's physiological response of saline solution treatment and glycerol compared to the RHE physiological response of the same treated with SOLUTIONS 1,2,3.

[3] = system: HSP1A1; test: Real time PCR, HSP1A1 (HSP 72) gene expression in RHE; format: cell-based, Human; details: for HSP 72 (RQ): cold stressed RHE, calibrator stressed saline =1 (Fig. 7)
From the text: as §1, §2, §3, §4, §5, §6, §7

## OCC(O)CO [Glycerin 5%, Glycerin]
[1]; 16h and 48h, standard conditions (for Glycerin 5% also stressed conditions)
  citotoxicity (LDH release), verbal assessment: not citotoxic
[1]; STANDARD conditions (without stress), 30 MIN + 16H
  % VIABILITY: 96,08%
[1]; STANDARD conditions (without stress), 30 MIN + 48H
  % VIABILITY: 63,14%
[1]; cold stressed RHE (30 MIN at -20°C), product applied, 16H recovery
  % VIABILITY: 80,70%
[1]; cold stressed RHE (30 MIN at -20°C), product applied, 48H recovery
  % VIABILITY: 61,11%
[2]; applied after 30' stress induction, 48h recovery, calibrator CONTROL RHE CN=1 (Fig. 3)
  AQP3 Gene expression (RQ): reduced
[2]; 16H recovery, calibrator RHE STRESSED SALINE =1
  AQP3 (RQ): 0,437
[2]; 48H recovery, calibrator RHE STRESSED SALINE =1 (Fig. 4), 2880 min
  AQP3 (RQ): 0,409
[2]; 48H recovery, calibrator RHE STRESSED SALINE =1 (Fig. 4), listed as Glycerol 5%
  AQP3 (RQ): reduced
[2]; non stressed but treated RHE, standard conditions, 16h, calibrator CN 16h=1 (Fig. 1)
  AQP3 Gene expression (RQ): significantly reduced
[2]; non stressed but treated RHE, standard conditions, 48h, calibrator CN 48h=1 (Fig. 1)
  AQP3 Gene expression (RQ): 1,694
[3]; 16H recovery
  HSP 72 (RQ): down-regulation
[3]; 16H recovery, 960 min
  HSP 72 (RQ): 0,139
[3]; 48H recovery
  HSP 72 (RQ): 0,437
[3]; non stressed but treated RHE, standard condition, 16h, calibrator CN 16h=1 (Fig. 5)
  HSP1A1 Gene expression: significantly reduced
[3]; not stressed RHE, 48h treatment, calibrator CN 48h=1 (Fig. 5)
  HSP1A1 (HSP 72) Gene expression: over expression
[3]; stressed RHE, 16h recovery, calibrator positive stressed control (Fig. 6)
  HSP 72 expression: reduced

Source: patent EP2695600A1, “Dermal cosmetic compositions having osmoprotecting activity” (Unifarco S.p.A., priority 2012, dated 2014)
